The target in test [1] is T1, Beta-adrenergic receptor kinase 1 (Homo sapiens, UniProt P25098).
T1 sequence (P25098 whole entry): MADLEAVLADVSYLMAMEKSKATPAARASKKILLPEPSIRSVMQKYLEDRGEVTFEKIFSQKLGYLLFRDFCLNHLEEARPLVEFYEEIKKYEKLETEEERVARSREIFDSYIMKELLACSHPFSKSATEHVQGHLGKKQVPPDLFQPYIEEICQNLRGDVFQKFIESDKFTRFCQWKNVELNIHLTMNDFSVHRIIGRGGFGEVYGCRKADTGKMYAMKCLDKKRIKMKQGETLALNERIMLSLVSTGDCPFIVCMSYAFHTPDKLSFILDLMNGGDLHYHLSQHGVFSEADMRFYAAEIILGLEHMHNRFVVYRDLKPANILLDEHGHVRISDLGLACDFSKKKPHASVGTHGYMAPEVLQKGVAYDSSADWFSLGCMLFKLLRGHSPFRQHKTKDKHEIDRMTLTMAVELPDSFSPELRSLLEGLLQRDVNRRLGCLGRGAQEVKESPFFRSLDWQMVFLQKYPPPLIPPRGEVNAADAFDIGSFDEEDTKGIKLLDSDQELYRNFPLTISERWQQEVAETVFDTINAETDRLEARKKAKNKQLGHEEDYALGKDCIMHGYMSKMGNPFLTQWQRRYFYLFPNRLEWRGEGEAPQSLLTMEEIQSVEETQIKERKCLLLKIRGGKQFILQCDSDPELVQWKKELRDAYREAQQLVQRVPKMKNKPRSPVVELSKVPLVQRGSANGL

For test [2], the target named is T2, Serine/threonine-protein kinase Chk1 (Homo sapiens, UniProt O14757).
T2 sequence (O14757 whole entry): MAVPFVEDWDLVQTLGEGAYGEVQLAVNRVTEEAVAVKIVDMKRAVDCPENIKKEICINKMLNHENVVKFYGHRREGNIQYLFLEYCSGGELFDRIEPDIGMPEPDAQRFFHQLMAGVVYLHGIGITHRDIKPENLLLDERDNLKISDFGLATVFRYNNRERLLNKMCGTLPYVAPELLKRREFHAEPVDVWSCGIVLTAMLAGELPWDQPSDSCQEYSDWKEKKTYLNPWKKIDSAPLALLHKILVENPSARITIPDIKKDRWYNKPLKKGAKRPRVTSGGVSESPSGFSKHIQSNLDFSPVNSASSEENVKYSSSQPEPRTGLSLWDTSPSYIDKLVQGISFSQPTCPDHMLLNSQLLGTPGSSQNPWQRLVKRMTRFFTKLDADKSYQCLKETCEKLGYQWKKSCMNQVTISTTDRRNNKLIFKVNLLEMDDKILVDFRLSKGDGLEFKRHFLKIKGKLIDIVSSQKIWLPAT

The target of test [3] is T3, Probable ATP-dependent RNA helicase DDX6 (Homo sapiens, UniProt P26196).
T3 sequence (P26196 whole entry): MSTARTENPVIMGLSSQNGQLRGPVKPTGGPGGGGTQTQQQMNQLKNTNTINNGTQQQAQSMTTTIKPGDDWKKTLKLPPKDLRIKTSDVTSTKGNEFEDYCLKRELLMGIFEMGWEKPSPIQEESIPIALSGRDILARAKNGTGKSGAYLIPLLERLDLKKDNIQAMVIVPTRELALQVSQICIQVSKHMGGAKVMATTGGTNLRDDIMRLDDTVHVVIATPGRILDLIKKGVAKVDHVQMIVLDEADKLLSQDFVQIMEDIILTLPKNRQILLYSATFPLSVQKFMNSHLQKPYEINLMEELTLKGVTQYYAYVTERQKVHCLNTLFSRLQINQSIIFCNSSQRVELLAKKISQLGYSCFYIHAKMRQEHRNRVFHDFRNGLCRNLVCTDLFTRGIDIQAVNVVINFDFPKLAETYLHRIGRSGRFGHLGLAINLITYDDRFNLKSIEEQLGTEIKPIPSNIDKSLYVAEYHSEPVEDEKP

The next test addresses Obg-like ATPase 1 (Homo sapiens, UniProt Q9NTK5).
In test [4] the target is T4, Serine/threonine-protein kinase PLK4 (Homo sapiens, UniProt O00444).
T4 sequence (O00444 whole entry): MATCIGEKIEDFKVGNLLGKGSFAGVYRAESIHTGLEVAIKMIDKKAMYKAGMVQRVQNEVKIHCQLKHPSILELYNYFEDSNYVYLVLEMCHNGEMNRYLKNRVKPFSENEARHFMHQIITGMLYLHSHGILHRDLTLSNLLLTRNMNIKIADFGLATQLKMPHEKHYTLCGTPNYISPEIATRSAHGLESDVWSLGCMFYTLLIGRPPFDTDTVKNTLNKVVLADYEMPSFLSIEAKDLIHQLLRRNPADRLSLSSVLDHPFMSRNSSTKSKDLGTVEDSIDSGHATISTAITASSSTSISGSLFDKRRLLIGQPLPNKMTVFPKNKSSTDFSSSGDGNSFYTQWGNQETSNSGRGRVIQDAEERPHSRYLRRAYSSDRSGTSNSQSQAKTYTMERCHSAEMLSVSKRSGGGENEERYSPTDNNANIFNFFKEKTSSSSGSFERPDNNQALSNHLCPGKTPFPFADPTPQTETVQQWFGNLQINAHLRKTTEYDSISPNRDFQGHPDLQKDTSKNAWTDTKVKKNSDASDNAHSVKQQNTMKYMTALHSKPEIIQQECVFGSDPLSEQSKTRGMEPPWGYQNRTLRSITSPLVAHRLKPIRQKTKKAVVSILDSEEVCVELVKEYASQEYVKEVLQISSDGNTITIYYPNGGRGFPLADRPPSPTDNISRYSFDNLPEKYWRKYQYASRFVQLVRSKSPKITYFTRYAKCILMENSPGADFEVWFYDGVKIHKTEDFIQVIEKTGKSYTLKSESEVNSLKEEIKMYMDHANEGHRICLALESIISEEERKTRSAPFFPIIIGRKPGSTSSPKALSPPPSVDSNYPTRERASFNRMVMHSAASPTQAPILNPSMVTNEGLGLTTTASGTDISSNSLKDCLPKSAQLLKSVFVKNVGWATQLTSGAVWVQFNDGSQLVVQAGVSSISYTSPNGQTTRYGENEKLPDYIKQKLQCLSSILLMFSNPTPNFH

This note sets out measurements from ChEMBL document CHEMBL3991601, “The target landscape of clinical kinase drugs” (Science, 2017).

Usually Kd stands for a measure of binding affinity in units of concentration.

Activity calls are given as the source filed them.
Note: in the data inactive means no Kd found up to 30 µM.

Obg-like ATPase 1, sequence (Q9NTK5 whole entry, looked up): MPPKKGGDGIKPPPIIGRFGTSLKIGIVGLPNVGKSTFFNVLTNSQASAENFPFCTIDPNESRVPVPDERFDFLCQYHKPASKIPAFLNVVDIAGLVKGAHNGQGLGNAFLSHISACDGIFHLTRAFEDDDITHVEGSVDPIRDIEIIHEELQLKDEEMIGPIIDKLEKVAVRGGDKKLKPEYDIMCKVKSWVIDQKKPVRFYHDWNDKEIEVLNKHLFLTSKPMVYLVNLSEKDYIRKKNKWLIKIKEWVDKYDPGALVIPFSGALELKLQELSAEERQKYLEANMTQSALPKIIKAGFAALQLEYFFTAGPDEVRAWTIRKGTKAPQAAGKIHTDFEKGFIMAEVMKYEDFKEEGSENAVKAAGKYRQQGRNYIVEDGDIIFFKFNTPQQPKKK

In the case of `COc1cc2ncnc3c2cc1OCCCCCN(C)Cc1ccc(Br)cc1N3` [JNJ-26483327], the Kd (in test [1]; in test [2]; in test [3]; on Obg-like ATPase 1; in test [4]) was > 30 µM (inactive) each time.
With `C=CC(=O)Nc1cccc(Nc2nc(Nc3ccc(N4CCN(C(C)=O)CC4)cc3OC)ncc2C(F)(F)F)c1` [ROCILETINIB], the Kd (in test [1]; in test [2]; in test [3]; on Obg-like ATPase 1; in test [4]) was > 30 µM (inactive) in each case.
On to `CCc1cc2c(cc1N1CCC(N3CCOCC3)CC1)C(C)(C)c1[nH]c3cc(C#N)ccc3c1C2=O` [ALECTINIB], for which the Kd (in test [1]; in test [2]; in test [3]; at Obg-like ATPase 1; in test [4]) was > 30 µM (inactive) throughout.
For `COc1cc2ncnc(Nc3ccc(F)c(Cl)c3)c2cc1NC(=O)/C=C/CN1CCCCC1` [DACOMITINIB ANHYDROUS], the Kd (in test [1]; in test [2]; in test [3]; on Obg-like ATPase 1; in test [4]) was > 30 µM (inactive) throughout.
Regarding `Cc1c(NC(=O)OC[C@@H]2COCCN2)cn2ncnc(Nc3ccc4c(cnn4Cc4cccc(F)c4)c3)c12` [AC-480], the Kd (in test [1]; in test [2]; in test [3]; on Obg-like ATPase 1; in test [4]) was > 30 µM (inactive) each time.
As to `Cc1cc(-c2cc(OC(=O)c3ccccc3)ccc2Cl)cc2nnc(Nc3ccc(OCCN4CCCC4)cc3)nc12` [TG100-801], the Kd (in test [1]; in test [2]; in test [3]; at Obg-like ATPase 1; in test [4]) was > 30 µM (inactive) in each case.
Regarding `COc1cc2nccc(Oc3ccc(NC(=O)C4(C(=O)Nc5ccc(F)cc5)CC4)cc3)c2cc1OC` [CABOZANTINIB], the Kd (in test [1]; in test [2]; in test [3]; on Obg-like ATPase 1; in test [4]) was > 30 µM (inactive) in each case.
On to `Cc1c(Cn2c(C)nc3c(C(=O)O)cc(N4CCOCC4)cc32)cccc1C(F)(F)F` [GSK-2636771], for which the Kd (in test [1]; in test [2]; in test [3]; on Obg-like ATPase 1; in test [4]) was > 30 µM (inactive) throughout.
With `Cc1cc(Nc2nc(N[C@@H](C)c3ncc(F)cn3)ncc2Cl)n[nH]1` [AZD-1480], the Kd is > 30 µM (inactive) in test [1]; > 30 µM (inactive) in test [2]; > 30 µM (inactive) in test [3]; > 30 µM (inactive) at Obg-like ATPase 1; 0.308 µM (active) in test [4].
`Cc1ccc(C(=O)Nc2ccc(Oc3cc4cnn(C)c4cc3-c3cn[nH]c3)c(F)c2)c(=O)n1-c1ccc(F)cc1` [MERESTINIB]: the Kd in test [1] is > 30 µM (inactive); in test [2] it was > 30 µM (inactive); in test [3] it was > 30 µM (inactive); at Obg-like ATPase 1 it was > 30 µM (inactive); in test [4] it was 1.61 µM (active).
As to `CNC(=O)c1cc(COc2nnc(Nc3ccc(Cl)cc3)c3ccoc23)ccn1` [TELATINIB], the Kd (in test [1]; in test [2]; in test [3]; on Obg-like ATPase 1; in test [4]) was > 30 µM (inactive) throughout.
For the compound `CNC(=O)c1cccc(-c2ccc3c(N4CCOC[C@@H]4C)nc(N4CCOC[C@@H]4C)nc3n2)c1` [VISTUSERTIB], the Kd (in test [1]; in test [2]; in test [3]; on Obg-like ATPase 1; in test [4]) was > 30 µM (inactive) throughout.
With `O=C(NC[C@H](O)CO)c1ccncc1Nc1ccc(I)cc1F` [PIMASERTIB], the Kd (in test [1]; in test [2]; in test [3]; at Obg-like ATPase 1; in test [4]) was > 30 µM (inactive) throughout.
Consider `CC(C)CC(=O)Nc1[nH]nc2c1CN(C(=O)C1CCN(C)CC1)C2(C)C` [PHA-793887], for which the Kd (in test [1]; in test [2]; in test [3]; on Obg-like ATPase 1; in test [4]) was > 30 µM (inactive) throughout.
Consider `O=C(NOC[C@H](O)CO)c1ccc(F)c(F)c1Nc1ccc(I)cc1F` [MIRDAMETINIB], for which the Kd (in test [1]; in test [2]; in test [3]; at Obg-like ATPase 1; in test [4]) was > 30 µM (inactive) each time.
Regarding `CC1(COc2ccc3c(c2)ncn3-c2ccc3cccc(N4CCC(N)CC4)c3n2)COC1` [CRENOLANIB], the Kd was > 30 µM (inactive) in test [1]; > 30 µM (inactive) in test [2]; > 30 µM (inactive) in test [3]; 0.007 µM on Obg-like ATPase 1; > 30 µM (inactive) in test [4].
For the compound `COc1ccc2c(OCc3nnc4ccc(-c5ccccc5)nn34)ccnc2c1` [AMG-208], the Kd (in test [1]; in test [2]; in test [3]; on Obg-like ATPase 1; in test [4]) was > 30 µM (inactive) in each case.
Take `COc1ccc(-c2ccc3ncc4c(c3c2)n(-c2ccc(N3CCNCC3)c(C(F)(F)F)c2)c(=O)n4C)cn1` [BGT-226 FREE BASE]: the Kd (in test [1]; in test [2]; in test [3]; at Obg-like ATPase 1; in test [4]) was > 30 µM (inactive) in each case.
